Data published in patent US8052961B2, “Highly fluorinated β-amino acids and methods of making and using same” (University of Utah Foundation, priority 2006, dated 2011).

How the values were obtained:
[1] = cited from earlier work
[2] = 1-octanol/water partition coefficient (Poct) of tripeptides
Description: The 1-octanol/water partition coefficients (Poct) of the two tripeptides were evaluated.
To 20 mg of peptide 4 or 5 were added 2 mL of water and 2 mL of 1-octanol. The resulting mixture was shaken with a mixer for 10 min. After the aqueous and the organic phases were fully separated, 50 μL of solution was taken out from each phase for HPLC analysis. To a mixture of 200 μL aqueous solution and 200 μL 1-octanol solution were added 1.8 mL of water and 1.8 mL of 1-octanol. The resulting mixture was shaken with a mixer for 10 min. After the phases were fully separated, 50 μL of solution was taken out from each phase for reversed-phases HPLC analysis.

| Compound | melting point [°C] | also measured |
| --- | --- | --- |
| octreotide |  | in vivo half-life (t1/2) [1]: 2 h |
| NCC(COC(C(F)(F)F)(C(F)(F)F)C(F)(F)F)(COC(C(F)(F)F)(C(F)(F)F)C(F)(F)F)C(=O)O | 182 to 184 |  |
| NC(=O)CNC(=O)C(CNC(=O)CNC=O)(COC(C(F)(F)F)(C(F)(F)F)C(F)(F)F)COC(C(F)(F)F)(C(F)(F)F)C(F)(F)F [tripeptide 4, Formyl-Gly-βFa-Gly-Amide] |  | logP at 10 min [2]: > 1 |

More lines, main results first:

| melting point [°C] | Compound | also measured |
| --- | --- | --- |
| 104 to 105 | O=C(NCC(COC(C(F)(F)F)(C(F)(F)F)C(F)(F)F)(COC(C(F)(F)F)(C(F)(F)F)C(F)(F)F)C(=O)O)OCC1c2ccccc2-c2ccccc21 |  |
| 128 to 130 | CC(C)(C)OC(=O)NCC(COC(C(F)(F)F)(C(F)(F)F)C(F)(F)F)(COC(C(F)(F)F)(C(F)(F)F)C(F)(F)F)C(=O)O |  |
